Columns and labels:
[1] = biological target: human Somatostatin 4 receptor (SSTR4) (Homo sapiens (Human), UniProt P31391); test: cAMP assay with human Somatostatin 4 receptor; assay type: cell-based; settings: hSSTR4 expressing H4 cells, inhibition of Forskolin-stimulated cAMP; read-out: SSTR4 agonism EC50
Description: Method description for cAMP assay with human Somatostatin 4 receptor.
The activation of the SSTR4 receptor (Gi coupled) causes an inhibition of intracellular cAMP after stimulation with Forskolin, which can be quantifiable by use of a suitable assay Kit and an adequate plate reader. This technique is used to characterize pharmacological effects of the SSTR4 receptor agonists by use of hSSTR4 expressing H4 cells.
Compounds are dissolved and diluted in DMSO. The final test solution contains […]. The cAMP standard (Lance cAMP 384 Kit; PerkinElmer, Cat #AD0264) is prepared in assay buffer (HBSS with 0.1% BSA, 5 mM HEPES, […], pH 7.4) containing 1% DMSO and the cAMP standard curve is included at least on one plate. Cells are centrifuged and suspended in assay buffer (incl. 1:100 diluted Alexa antibody).
For the assay 5 μl of a cell suspension (approximately 5000 cells/well)—incl. Alexa antibody (diluted 1:100) are added into a 384 well MTP microtitre plate excepting one row or column (depending on the plate layout), which is reserved for the standard curve. Then 2 μl of compound sample is added as concentration response curve (e.g. 1e-5 M to 6e-10 M), usually in triplicates. Each assay contains incubations with vehicle controls instead of compound as controls for non-inhibited cAMP generation (100% CTL; ‘high values’) and incubations with 1 μM Somatosatin as controls for full inhibition and background (0% CTL; ‘low values’). After approximately 10-15 min incubation time 3 μl Forskolin (dissolved in DMSO, final conc. 15 μM) is added. Then the plates are shaken briefly and incubated for 60 min at room temperature. After 60 min 10 μl of the detection mix is added into all wells followed by an additional incubation period of 1 h. The plates are read in a suitable plate reader.
The analysis of the data is based on the “ratio” of the time-resolved fluorescence measurements of donor and acceptor fluorophore (Ex: 320 nm; Em1: 665 nm; Em2: 615 nm; ratio 665/615). From this ratio, cAMP concentrations are calculated from standard curve and the EC50 is estimated by least square curve fit program.

[2] = Metabolic stability in human liver microsomes; assay type: in vitro ADME; settings: pooled human liver microsomes, 37° C., 1 μM test compound, NADPH; for half-life at 1 μM: pH 7.6, read-out: Half-life t1/2
Description: The metabolic stability of the compounds according to the invention may be investigated as follows:
The metabolic degradation of the test compound is assayed at 37° C. with pooled human liver microsomes. The final incubation volume of 100 μl per time point contains TRIS buffer pH 7.6 at room temperature (0.1 M), magnesium chloride (5 mM), microsomal protein (1 mg/mL) and the test compound at a final concentration of 1 μM. Following a short preincubation period at 37° C., the reactions are initiated by addition of beta-nicotinamide adenine dinucleotide phosphate, reduced form (NADPH, 1 mM), and terminated by transferring an aliquot into solvent after different time points. After centrifugation (10000 g, 5 min), an aliquot of the supernatant is assayed by LC-MS/MS for the amount of parent compound. The half-life is determined by the slope of the semi-logarithmic plot of the concentration-time profile.

human Somatostatin 4 receptor (SSTR4), sequence (P31391 whole entry): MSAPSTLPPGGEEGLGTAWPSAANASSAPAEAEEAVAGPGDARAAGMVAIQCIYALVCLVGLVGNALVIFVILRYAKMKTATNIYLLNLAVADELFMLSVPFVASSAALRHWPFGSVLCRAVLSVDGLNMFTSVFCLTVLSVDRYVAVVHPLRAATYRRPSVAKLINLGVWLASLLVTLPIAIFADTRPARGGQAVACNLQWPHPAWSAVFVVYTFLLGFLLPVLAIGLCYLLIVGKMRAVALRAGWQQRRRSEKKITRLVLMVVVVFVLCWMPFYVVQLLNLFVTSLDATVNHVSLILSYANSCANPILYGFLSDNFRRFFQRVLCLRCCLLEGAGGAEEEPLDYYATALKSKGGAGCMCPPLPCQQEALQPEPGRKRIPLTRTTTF

Row | Compound | EC50 [1] [nM] | half-life at 1 μM [2] [h] | Half-life t1/2 [2] [h]
1 | Cc1cccnc1OCC(C)(C)NC(=O)c1cccc2c1OCCNC2 [Example 15] | 28.1 |  | 
2 | Cn1nc(C(C)(C)NC(=O)c2cccc3c2OCCNC3)c2c(F)cccc21 [Example 22] | 8 | 0.7 | 
3 | CC(C)(NC(=O)c1cccc2c1OCCNC2)c1ccc(Cl)c(Cl)c1.Cl [Example 8] | 22.3 | 0.0733 | 
4 | CC(C)(NC(=O)c1cccc2c1OCCNC2)c1ncc2c(Cl)cccn12 [Example 48] | 1.7 | 1.42 | 
5 | CC(C)(NC(=O)c1cccc2c1OCCNC2)c1cccc2cnccc12 [Example 11] | 423 |  | 
6 | CC(C)(NC(=O)c1cccc2c1OCCNC2)c1cccc2ncccc12 [Example 12] | 98.4 |  | 
7 | Cn1nc(C(C)(C)NC(=O)c2cccc3c2OCCNC3)c2ccc(F)cc21 [Example 23] | 0.9 | 1.12 | 
8 | CC(C)(NC(=O)c1cccc2c1OCCNC2)c1cccc2cccnc12 [Example 10] | 42.1 |  | 
9 | Cc1cccc2c(C(C)(C)NC(=O)c3cccc4c3OCCNC4)nn(C)c12 [Example 40] | 2.2 | 0.517 | 
10 | Cn1nc(C(C)(C)NC(=O)c2cncc3c2OCCNC3)c2ccccc21 [Example 21] | 35.5 |  | 
11 | CC(NC(=O)c1cccc2c1OCCNC2)c1nc2ccccc2[nH]1 (centres unmarked) [Example 2] | 302 |  | 
12 | CC(C)(NC(=O)c1cccc2c1OCCNC2)c1noc2c(F)cccc12 [Example 34] | 18.2 |  | 
13 | Cc1cc2ccccc2c(C(C)(C)NC(=O)c2nccc3c2OCCNC3)n1 [Example 29] | 19.9 | 0.45 | 
14 | CC(C)(NC(=O)c1cccc2c1OCCNC2)c1ncnc2ccccc12 [Example 46] | 9.2 | > 2.17 | 
15 | Cc1ncc(C(C)(C)NC(=O)c2cccc3c2OCCNC3)c2ccccc12 [Example 27] | 0.6 | > 2.17 | 
16 | Cc1cccn2c(C3(NC(=O)c4cccc5c4OCCNC5)CC3)ncc12 [Example 49] | 1.5 | 1.55 | 
17 | O=C(NC1(c2nc3ccc(Cl)cc3[nH]2)CCOC1)c1cccc2c1OCCNC2 (centres unmarked) [Example 5] | 750 |  | 
18 | CC(C)(NC(=O)c1ccnc2c1OCCNC2)c1noc2c(F)cccc12 [Example 36] | 380 |  | 
19 | CC(C)(NC(=O)c1cccc2c1OCCNC2)c1n[nH]c2c(F)cccc12 [Example 43] | 2.2 | 1.45 | 
20 | Cc1cc(F)cn2c(C(C)(C)NC(=O)c3cccc4c3OCCNC4)ncc12 [Example 52] | 8.7 |  | 

Row | Compound | EC50 [1] [nM] | half-life at 1 μM [2] [h] | Half-life t1/2 [2] [h]
21 | CC(C)(NC(=O)c1cccc2c1OCCNC2)c1ccc(F)cc1 [Example 16] | 33 |  | 
22 | CC(C)(COc1cnccc1C(F)(F)F)NC(=O)c1cccc2c1OCCNC2 [Example 14] | 132 |  | 
23 | Cc1cccc2c(C(C)(C)NC(=O)c3ccnc4c3OCCNC4)nn(C)c12 [Example 41] | 18.3 | > 2.17 | 
24 | Cc1cccc2c(C(C)(C)NC(=O)c3cccc4c3OCCNC4)cnn12 [Example 24] | 4.4 | 1.83 | 
25 | COc1cccn2c(C(C)(C)NC(=O)c3cccc4c3OCCNC4)ncc12 [Example 51] | 4.3 |  | 2.17
26 | CC(C)(NC(=O)c1cccc2c1OCCNC2)c1ncc2ccccn12.Cl [Example 13] | 14.3 | > 2.17 | 
27 | Cn1nc(C(C)(C)NC(=O)c2cccc3c2OCCNC3)c2cccc(C(F)(F)F)c21 [Example 25] | 6.8 |  | 
28 | Cc1nc(C(C)(C)NC(=O)c2cccc3c2OCCNC3)n2cccc(F)c12 [Example 50] | 2 | 1.38 | 
29 | CC(C)(NC(=O)c1cccc2c1OCCNC2)c1nc2ccc(Cl)cc2[nH]1 [Example 3] | 45.1 |  | 
30 | Cc1cc2ccccc2c(C(C)(C)NC(=O)c2cccc3c2OCCNC3)n1 [Example 28] | 4.2 | 0.5 | 
31 | Cc1cccc2c(C(C)(C)NC(=O)c3cccc4c3OCCNC4)ncnc12 [Example 45] | 9.2 | 1.83 | 
32 | C[C@H](NC(=O)c1cccc2c1OCCNC2)c1cccc2ccccc12.Cl [Example 9] | 2.8 | 0.317 | 
33 | Cc1cc2cccnc2c(C(C)(C)NC(=O)c2cccc3c2OCCNC3)n1 [Example 1] | 58.1 |  | 
34 | O=C(NC1(c2nc3ccc(Cl)cc3[nH]2)CC1)c1cccc2c1OCCNC2 [Example 4] | 342 |  | 
35 | CC(C)(NC(=O)c1nccc2c1OCCNC2)c1noc2c(F)cccc12 [Example 35] | 350 |  | 
36 | CC(C)(NC(=O)c1cncc2c1OCCNC2)c1noc2c(F)cccc12 [Example 37] | 1600 |  | 
37 | Cc1cc2ccccc2c(C(C)(C)NC(=O)c2cncc3c2OCCNC3)n1 [Example 31] | 37 |  | 
38 | Cc1cc2ccccc2c(C(C)(C)NC(=O)c2ccnc3c2OCCNC3)n1 [Example 30] | 19 |  | 
39 | Cc1cccn2c(C3(NC(=O)c4cccc5c4OCCNC5)CCC3)ncc12 [Example 54] | 15.2 |  | 

The remaining lines, values ahead:

Row | EC50 [1] [nM] | half-life at 1 μM [2] [h] | Half-life t1/2 [2] [h] | Compound
40 | 6.3 | 0.75 |  | CC(C)(NC(=O)c1cccc2c1OCCNC2)c1nc(C2CC2)c2c(F)cccn12 [Example 61]
41 | 17.6 |  |  | Cc1nc2ccccn2c1C(C)(C)NC(=O)c1cccc2c1OCCNC2 [Example 69]
42 | 2.9 | 0.183 |  | Cc1cccn2c(C(C)(C)NC(=O)c3cccc4c3OCCNC4)ccc12 [Example 71]
43 | 21.4 |  |  | Cc1nc(C(C)(C)NC(=O)c2cccc3c2OCCNC3)c2cccc(C)c2n1 [Example 65]
44 | 94.4 |  |  | Cc1cccn2c([C@H](C)NC(=O)c3cccc4c3OCCNC4)ncc12 [Example 60]
45 | 22.6 |  |  | Cc1cccn2c(C(C)(C)NC(=O)c3nccc4c3OCCNC4)ccc12 [Example 77]
46 | 145 |  |  | Cc1cccn2c(C(C)(C)NC(=O)c3nccc4c3OCCNC4)nc(C3CC3)c12 [Example 76]
47 | 30.5 |  |  | CC(C)(NC(=O)c1cccc2c1OCCNC2)c1ncc2c(OC(F)(F)F)cccn12 [Example 59]
48 | 10.4 | > 2.17 |  | Cc1cccn2c(C(C)(C)NC(=O)c3nccc4c3OCCNC4)nc(C)c12 [Example 75]
49 | 31.3 | > 2.17 |  | Cc1cccn2c(C(C)(C)NC(=O)c3cncc4c3OCCNC4)ncc12 [Example 79]
50 | 106 |  |  | COc1cccn2c(C(C)(C)NC(=O)c3nccc4c3OCCNC4)ncc12 [Example 74]
51 | 75 |  |  | Cc1nc(C(C)(C)NC(=O)c2cccc3c2OCCNC3)c2cccc(F)c2n1 [Example 67]
52 | 22.3 | > 2.17 |  | Cc1nc(C(C)(C)NC(=O)c2cccc3c2OCCNC3)c2ccccc2n1 [Example 64]
53 | 1980 |  |  | Cc1cccn2c(C(C)(CC(C)C)NC(=O)c3cccc4c3OCCNC4)ncc12 (centres unmarked) [Example 56]
54 | 134 |  |  | Cc1cccn2c(C(C)(NC(=O)c3cccc4c3OCCNC4)C3CC3)ncc12 (centres unmarked) [Example 55]
55 | 33.6 | > 2.17 |  | Cc1cccn2c(C(C)(C)NC(=O)c3ccnc4c3OCCNC4)ncc12 [Example 78]
56 | 11.3 | > 2.17 |  | Cc1cccn2c(C(C)(C)NC(=O)c3cccc4c3OCCNC4)cnc12 [Example 70]
57 | 39.3 |  |  | Cc1cccn2c(C3(NC(=O)c4nccc5c4OCCNC5)CC3)ncc12 [Example 73]
58 | 4 | 0.533 |  | Cc1cccn2c(C(C)(C)NC(=O)c3cccc4c3OCCNC4)nc(C3CC3)c12 [Example 62]
59 | 2480 |  |  | Cc1cccn2c(C3(NC(=O)c4cccc5c4OCCNC5)CCOCC3)ncc12 [Example 58]
60 | 30 |  |  | CC(C)(NC(=O)c1cccc2c1OCCNC2)c1ncnc2c(F)cccc12 [Example 66]
61 | 37.9 |  |  | Cc1cccn2c(C(C)(C)NC(=O)c3cccc4c3OCCNC4)nnc12 [Example 68]
62 | 354 |  |  | Cc1cccn2c(C3(NC(=O)c4cccc5c4OCCNC5)CCOC3)ncc12 (centres unmarked) [Example 57]
63 | 32.3 |  |  | CC(C)(NC(=O)c1cccc2c1OCCNC2)c1nc(C(F)(F)F)c2c(F)cccn12 [Example 63]
